The record followed here is patent EP4291552B1, “MODULATORS OF COMPLEX I” (Boehringer Ingelheim International GmbH, priority 2021, dated 2022).

pIC50: −log10 of the molar value.

One experiment deals with Complex I (Bos taurus, UniProt P25708). In words: Determination of Complex I mediated ROS-inhibition (CI). As to conditions: read-out: CI IC50. It counts as biochemical, bovine.
As for `CN1C(=O)/C(=C2/COCCN2)c2cc(NC3CC4CCC(C3)N4C)ccc21` (centres unmarked) [Compound 131], the pIC50 was 6.72. Turning to `CN1[C@@H]2CC[C@H]1CC(Nc1ccc3c(c1)/C(=C1\COCCN1)C(=O)N3C1CCOCC1)C2` (some centres unmarked) [Compound 101], the pIC50 was 6.69. Same read-out and setting: to `CC(C)N1C(=O)/C(=C2/COCCN2)c2cc(NC3C[C@H]4CC[C@@H](C3)N4C)ccc21` (some centres unmarked) [Compound 123] belongs 6.04.

Still in this experiment, the particulars now being: read-out: CI IC50; Complex I purified from bovine heart; ROS detected via Amplex Red/horse radish peroxidase; 8 point concentration-response.
For `CC(C)Nc1ccc2c(c1)/C(=C1\CCOCCN1)C(=O)N2C1CCOCC1` [Compound 30], the pIC50 is 6.71.

A further experiment relates to mice neuroblastoma cells (HT-22). Briefly: Determination of Cellular Protection (HT22). The settings on record: Mus musculus, HT-22, 16 h, read-out: HT22 IC50.
For `CC(C)Nc1ccc2c(c1)/C(=C1\CCOCCN1)C(=O)N2C1CCOCC1` [Compound 30], the pIC50 is 6.87. Take `CN(C)c1ccc2c(c1)/C(=C1\CCCCN1)C(=O)N2C` [Compound 62]: the pIC50 was 6.79. Regarding `CN(C)c1ccc2c(c1)/C(=C1\COCCN1)C(=O)N2C` [Compound 2], the pIC50 is 5.98. Same read-out and setting: the value for `CN1C(=O)/C(=C2/COCCN2)c2cc(NC3CC4CCC(C3)N4C)ccc21` (centres unmarked) [Compound 131] was 6.95; that for `CC(=O)N1CCN/C(=C2\C(=O)N(C(C)C)c3ccc(NC(C)C)cc32)C1` [Compound 159] was 7.10. Take `CC(Nc1ccc2c(c1)/C(=C1\COCCN1)C(=O)N2C(C)C)C1CCCC1` (centres unmarked) [Compound 56]: the pIC50 is 8.70. On the same count and under the same terms, the value for `CN1[C@@H]2CC[C@H]1CC(Nc1ccc3c(c1)/C(=C1\COCCN1)C(=O)N3C1CCOCC1)C2` (some centres unmarked) [Compound 101] was 6.43; that for `O=C1/C(=C2/COCCN2)c2cc(NC3CCOC3)ccc2N1C1CCOC1` (centres unmarked) [Compound 168] was 6.36. `O=C1/C(=C2/COCCN2)c2cc(NCC3CC3)ccc2N1C1CCOCC1` [Compound 103]: the pIC50 is 6.98. As to `CN1CCC/C1=C1/C(=O)N(C2CCOCC2)c2ccc(NC3CCC3)cc21` [Compound 9], the pIC50 was 7.42. As for `O=C1/C(=C2/COCCCN2)c2cc(NC3CCOC3)ccc2N1C1CCOCC1` (centres unmarked) [Compound 141], the pIC50 is 6.19. On the same count and under the same terms, the value for `COC1COCCC1Nc1ccc2c(c1)/C(=C1\COCCN1)C(=O)N2C(C)C` (centres unmarked) [Compound 16] was 6.16; that for `CN(C)c1ccc2c(c1)/C(=C1\CCCN1)C(=O)N2C1CCN(C(=O)C(F)(F)F)CC1` [Compound 153] was 6.77.

As for `CC(C)Nc1ccc2c(c1)/C(=C1\COCCN1)C(=O)N2C(C)(C)C` [Compound 90], the negative-log IC50 (pIC50) was 7.49.

Turning to `CC(Nc1ccc2c(c1)/C(=C1\COCCN1)C(=O)N2C1CCOCC1)c1cccnc1` (centres unmarked) [Compound 100], the pIC50 is 6.40.

Take `CC(C)N1CCN/C(=C2\C(=O)N(C)c3ccc(N4CCCC4)cc32)CC1` [Compound 110]: the pIC50 was 7.72. Turning to `CC(C)Nc1ccc2c(c1)C(=C1CCOCC1)C(=O)N2C1CCOCC1` [Compound 6], the negative logarithm of the IC50 (pIC50) was 6.68.

On to `O=C1C(=C2CCOCC2)c2cc(N3CCCC3)ccc2N1C1CCOCC1` [Compound 112], for which the pIC50 is 7.07. Same read-out and setting: to `CC(C)Nc1ccc2c(c1)/C(=C1\CCCN1C)C(=O)N2C(C)C` [Compound 115] belongs 7.52; to `CC(C)N1CCC(Nc2ccc3c(c2)/C(=C2\COCCN2)C(=O)N3C(C)C)CC1` [Compound 96], 7.39; to `O=C1/C(=C2/COCCN2)c2cc(NC3CCCC3)ccc2N1C1CCOCC1` [Compound 60], 8.00. Regarding `CC(C)N1C(=O)/C(=C2/COCCN2)c2cc(NC3C[C@H]4CC[C@@H](C3)N4C)ccc21` (some centres unmarked) [Compound 123], the negative logarithm of the IC50 (pIC50) was 7.77. The same measure, in the same setting: to `CC(C)N1CCC(Nc2ccc3c(c2)/C(=C2\COCCN2)C(=O)N3C2CCOCC2)CC1` [Compound 19] belongs 6.77. As to `CC(C)N1C(=O)/C(=C2/COCCN2)c2cc(NC3COC3)ccc21` [Compound 98], the pIC50 is 6.78. Take `CC(C)Nc1ccc2c(c1)/C(=C1\CN(C3COC3)CCN1)C(=O)N2C(C)C` [Compound 114]: the pIC50 was 6.98. The same measure, in the same setting: the value for `CC(C)Nc1ccc2c(c1)/C(=C1\COCCN1)C(=O)N2C(C)C` [Compound 44] was 7.52; that for `CN1C(=O)/C(=C2/CCNCCN2)c2cc(N3CCCC3)ccc21` [Compound 40] was 7.89. As for `CC(Nc1ccc2c(c1)/C(=C1\COCCN1)C(=O)N2C1CCOCC1)C1CC1` (centres unmarked) [Compound 20], the pIC50 is 7.47. Regarding `CC(C)N1C(=O)/C(=C2/CCCCN2)c2cc(N3CCOCC3)ccc21` [Compound 158], the negative logarithm of the IC50 (pIC50) is 5.68. Same read-out and setting: to `CC(C)N1C(=O)/C(=C2/CCCCN2)c2cc(N(C3CCC3)C3CCC3)ccc21` [Compound 113] belongs 7.74. Same read-out and setting: to `CN(C)c1ccc2c(c1)/C(=C1\CCN(C(=O)OCc3ccccc3)CCN1)C(=O)N2C` [Compound 108] belongs 6.89; to `O=C1/C(=C2/CC3(CN2)COC3)c2cc(NC3CCOC3)ccc2N1C1CCOCC1` (centres unmarked) [Compound 70], 5.94. Still for that read-out and setting: the value for `CC(C)C(C)Nc1ccc2c(c1)/C(=C1\COCCN1)C(=O)N2C1COCCOC1` (centres unmarked) [Compound 27] was 7.82. `CC(C)N1C(=O)/C(=C2/CCOCCN2)c2cc(N3CCCC3)ccc21` [Compound 129]: the pIC50 was 7.64. `CC(Nc1ccc2c(c1)/C(=C1\COCCN1)C(=O)N2C(C)C)c1cncnc1` (centres unmarked) [Compound 126]: the pIC50 was 6.75. The same measure, in the same setting: to `CN1C(=O)/C(=C2/CCN(C3COC3)CCN2)c2cc(N3CCCC3)ccc21` [Compound 45] belongs 6.58; to `CC(C)Nc1ccc2c(c1)/C(=C1\CCCN1C)C(=O)N2C1CCOCC1` [Compound 48], 6.45.

`COCC(C)N1C(=O)/C(=C2/COCCN2)c2cc(N3CCCC3)ccc21` (centres unmarked) [Compound 68]: the pIC50 was 6.87. On to `CC(C)Nc1ccc2c(c1)/C(=C1\CN(C3COC3)CCN1)C(=O)N2C1CCOCC1` [Compound 5], for which the pIC50 is 6.66.

For the molecule `CCOC(=O)N1CCC(N2C(=O)/C(=C3/COCCN3)c3cc(N(C)C)ccc32)CC1` [Compound 89], the pIC50 was 6.31. Same read-out and setting: the value for `CC(C)Nc1ccc2c(c1)C(=C1CCOCC1)C(=O)N2C(C)C` [Compound 47] was 7.07; that for `CC(Nc1ccc2c(c1)/C(=C1\COCCN1)C(=O)N2C(C)C)C1CC1` (centres unmarked) [Compound 97] was 7.77. In the case of `CC(=O)N1CCC2(CC1)CN/C(=C1\C(=O)N(C(C)C)c3ccc(NC(C)C)cc31)CO2` [Compound 34], the negative-log IC50 (pIC50) is 7.31.

Consider `O=C(CCO)Nc1ccc2c(c1)/C(=C1\COCCN1)C(=O)N2C1CCOC1` (centres unmarked) [Compound 169], for which the pIC50 is 6.47. On to `CC1CCN(c2ccc3c(c2)/C(=C2\COCCN2)C(=O)N3C2CCOCC2)CC1` [Compound 85], for which the pIC50 is 6.58. The same measure, in the same setting: to `CC(Nc1ccc2c(c1)/C(=C1\COCCN1)C(=O)N2C1CCOCC1)c1ccnn1C` (centres unmarked) [Compound 79] belongs 6.66; to `CN(C)c1ccc2c(c1)/C(=C1\CCOCCN1)C(=O)N2C` [Compound 41], 6.01; to `CC1CCC(C)N1c1ccc2c(c1)/C(=C1\COCCN1)C(=O)N2C1CCOC1` (centres unmarked) [Compound 162], 7.21. On the same count and under the same terms, the value for `CC(C)Nc1ccc2c(c1)/C(=C1\COCCN1)C(=O)N2C1COC1` [Compound 135] was 6.80; that for `Nc1ccc2c(c1)/C(=C1\COCCN1)C(=O)N2C1CCOCC1` [Compound 35] was 5.56. For the molecule `CC(C)N1C(=O)/C(=C2/CCOCCN2)c2cc(NC3CCC3)ccc21` [Compound 22], the pIC50 was 7.96.

`COC1COCCC1Nc1ccc2c(c1)/C(=C1\COCCN1)C(=O)N2C1CCOCC1` (centres unmarked) [Compound 149]: the pIC50 was 5.53. `CC(C)Nc1ccc2c(c1)/C(=C1\COCCCN1)C(=O)N2C1CCOCC1` [Compound 167]: the pIC50 was 6.87. On the same count and under the same terms, to `CC(C)Nc1ccc2c(c1)/C(=C1\COCCN1)C(=O)N2C1CCOC1` (centres unmarked) [Compound 163] belongs 7.28; to `CC(C)N1C(=O)/C(=C2/COCCN2)c2cc(NCC3CC3)ccc21` [Compound 58], 7.72; to `CC(Nc1ccc2c(c1)/C(=C1\COCCN1)C(=O)N2C1CCOCC1)c1cnccn1` (centres unmarked) [Compound 146], 6.68.

Take `CC(Nc1ccc2c(c1)/C(=C1\COCCN1)C(=O)N2C1COC1)C1CC1` (centres unmarked) [Compound 67]: the pIC50 is 7.43. The same measure, in the same setting: the value for `CC(C)Nc1ccc2c(c1)/C(=C1\COCCN1)C(=O)N2[C@H]1CCN(C(C)C)C1` [Compound 31] was 7.39; that for `O=C1/C(=C2/COCCN2)c2cc(NCc3cc[nH]n3)ccc2N1C1CCOCC1` [Compound 21] was 6.60; that for `CC(Nc1ccc2c(c1)/C(=C1\COCCN1)C(=O)N2C(C)C)c1ccccn1` (centres unmarked) [Compound 71] was 6.88. Same read-out and setting: the value for `CC(C)N1C(=O)C(=C2CCOCC2)c2cc(NC3CCCC3)ccc21` [Compound 116] was 8.05.
